How the values were obtained:
Assay in all cases: Kinase inhibition screening (Luceome)
Format in all cases: biochemical
Conditions in all cases: 10 μM
P38-γ = target: T1, P38-γ (Homo sapiens, UniProt P53778)
T1 construct: purchased Luceome Biotechnologies (Tucson, Ariz.)
Excerpt: (§1) It is well established that dysfunctional and unregulated kinase activity plays significant roles in cancer initiation and progression. […] Inspection of the data provides several interesting observations. […] These inhibitory effects at this concentration are consistent with their measured IC50 values that are also in the μM range (Table 1). In addition, several kinases display overlapping inhibitory responses to both gold(I) compounds. Many of these are of particular interest since they are involved in cancer initiation and/or progression. For example, the Aurora kinase family members, Aurora A and Aurora B, as well as the MARK2 and MARK3 kinases function during mitosis to regulate cell division. These kinases are important therapeutic targets as their activities are often deregulated in many types of cancers. Other kinases such as RPS6KA3 and MLK3 are involved in the MAP kinase and JNK pathways which are also important in cancer progression.

AKT3 = target: T2, AKT3 (Homo sapiens, UniProt Q9Y243)
T2 construct: purchased Luceome Biotechnologies (Tucson, Ariz.)
T2 sequence (Q9Y243 whole entry): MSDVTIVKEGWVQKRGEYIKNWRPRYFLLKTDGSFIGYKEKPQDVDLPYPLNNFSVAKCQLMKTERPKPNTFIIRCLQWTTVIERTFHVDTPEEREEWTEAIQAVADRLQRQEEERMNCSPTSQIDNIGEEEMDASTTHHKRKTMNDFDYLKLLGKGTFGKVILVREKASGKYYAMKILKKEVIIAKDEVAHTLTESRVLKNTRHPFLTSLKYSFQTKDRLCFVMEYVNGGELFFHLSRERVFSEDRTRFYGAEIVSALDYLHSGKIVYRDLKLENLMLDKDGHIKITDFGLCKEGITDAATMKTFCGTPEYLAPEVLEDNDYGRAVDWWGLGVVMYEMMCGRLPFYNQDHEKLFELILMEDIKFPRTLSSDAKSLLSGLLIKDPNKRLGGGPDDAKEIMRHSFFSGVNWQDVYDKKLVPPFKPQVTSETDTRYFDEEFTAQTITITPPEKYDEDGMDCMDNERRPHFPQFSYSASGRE
Excerpt: as §1

CAMKD2B = target: T3, CAMKD2B (Homo sapiens, UniProt Q13554)
T3 construct: purchased Luceome Biotechnologies (Tucson, Ariz.)
Excerpt: as §1

SNARK = target: T4, SNARK (Homo sapiens, UniProt Q9H093)
T4 construct: purchased Luceome Biotechnologies (Tucson, Ariz.)
Excerpt: as §1

AKT1 = target: T5, AKT1 (Homo sapiens, UniProt P31749)
T5 construct: purchased Luceome Biotechnologies (Tucson, Ariz.)
Excerpt: as §1

CAMKK2 = target: T6, CAMKK2 (Homo sapiens, UniProt Q96RR4)
T6 construct: purchased Luceome Biotechnologies (Tucson, Ariz.)
Excerpt: as §1

BLK = target: T7, BLK (Homo sapiens, UniProt P51451)
T7 construct: purchased Luceome Biotechnologies (Tucson, Ariz.)
Excerpt: as §1

YES1 = target: T8, YES1 (Homo sapiens, UniProt P07947)
T8 construct: purchased Luceome Biotechnologies (Tucson, Ariz.)
Excerpt: as §1

RPS6KA3 = target: T9, RPS6KA3 (Homo sapiens, UniProt P51812)
T9 construct: purchased Luceome Biotechnologies (Tucson, Ariz.)
Excerpt: as §1

PDGFRB = target: T10, PDGFRB (Homo sapiens, UniProt P09619)
T10 construct: purchased Luceome Biotechnologies (Tucson, Ariz.)
T10 sequence (P09619 33-1106): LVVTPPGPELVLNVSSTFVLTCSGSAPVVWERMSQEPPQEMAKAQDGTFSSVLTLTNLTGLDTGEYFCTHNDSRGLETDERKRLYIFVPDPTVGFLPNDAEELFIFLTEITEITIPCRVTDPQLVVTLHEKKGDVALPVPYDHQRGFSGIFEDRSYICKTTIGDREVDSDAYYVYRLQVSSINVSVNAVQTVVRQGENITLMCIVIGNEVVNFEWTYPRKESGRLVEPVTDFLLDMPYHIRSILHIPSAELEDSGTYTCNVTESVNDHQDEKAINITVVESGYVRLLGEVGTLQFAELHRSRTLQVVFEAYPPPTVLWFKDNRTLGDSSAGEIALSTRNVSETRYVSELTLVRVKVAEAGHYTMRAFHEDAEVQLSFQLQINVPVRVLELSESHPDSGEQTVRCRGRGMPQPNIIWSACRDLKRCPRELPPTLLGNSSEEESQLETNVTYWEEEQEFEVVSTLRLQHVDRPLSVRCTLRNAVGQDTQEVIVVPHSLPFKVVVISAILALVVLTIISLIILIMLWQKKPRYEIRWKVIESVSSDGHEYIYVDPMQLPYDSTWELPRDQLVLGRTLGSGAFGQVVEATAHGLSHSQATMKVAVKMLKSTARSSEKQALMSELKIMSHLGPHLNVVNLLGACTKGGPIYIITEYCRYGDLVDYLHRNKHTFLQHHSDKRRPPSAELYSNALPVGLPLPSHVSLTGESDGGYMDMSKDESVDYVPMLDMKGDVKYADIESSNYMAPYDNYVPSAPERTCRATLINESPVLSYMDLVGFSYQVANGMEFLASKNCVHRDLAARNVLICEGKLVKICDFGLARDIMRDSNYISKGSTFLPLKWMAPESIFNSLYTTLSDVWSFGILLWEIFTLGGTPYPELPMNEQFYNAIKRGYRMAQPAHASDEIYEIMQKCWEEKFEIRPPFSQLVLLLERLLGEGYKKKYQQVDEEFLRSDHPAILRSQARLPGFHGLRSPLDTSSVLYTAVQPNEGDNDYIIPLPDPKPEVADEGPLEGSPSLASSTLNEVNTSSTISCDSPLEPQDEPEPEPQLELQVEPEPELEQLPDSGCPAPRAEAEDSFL
Excerpt: as §1

FGFR2 = target: T11, FGFR2 (Homo sapiens, UniProt P21802)
T11 construct: purchased Luceome Biotechnologies (Tucson, Ariz.)
T11 sequence (P21802 22-821): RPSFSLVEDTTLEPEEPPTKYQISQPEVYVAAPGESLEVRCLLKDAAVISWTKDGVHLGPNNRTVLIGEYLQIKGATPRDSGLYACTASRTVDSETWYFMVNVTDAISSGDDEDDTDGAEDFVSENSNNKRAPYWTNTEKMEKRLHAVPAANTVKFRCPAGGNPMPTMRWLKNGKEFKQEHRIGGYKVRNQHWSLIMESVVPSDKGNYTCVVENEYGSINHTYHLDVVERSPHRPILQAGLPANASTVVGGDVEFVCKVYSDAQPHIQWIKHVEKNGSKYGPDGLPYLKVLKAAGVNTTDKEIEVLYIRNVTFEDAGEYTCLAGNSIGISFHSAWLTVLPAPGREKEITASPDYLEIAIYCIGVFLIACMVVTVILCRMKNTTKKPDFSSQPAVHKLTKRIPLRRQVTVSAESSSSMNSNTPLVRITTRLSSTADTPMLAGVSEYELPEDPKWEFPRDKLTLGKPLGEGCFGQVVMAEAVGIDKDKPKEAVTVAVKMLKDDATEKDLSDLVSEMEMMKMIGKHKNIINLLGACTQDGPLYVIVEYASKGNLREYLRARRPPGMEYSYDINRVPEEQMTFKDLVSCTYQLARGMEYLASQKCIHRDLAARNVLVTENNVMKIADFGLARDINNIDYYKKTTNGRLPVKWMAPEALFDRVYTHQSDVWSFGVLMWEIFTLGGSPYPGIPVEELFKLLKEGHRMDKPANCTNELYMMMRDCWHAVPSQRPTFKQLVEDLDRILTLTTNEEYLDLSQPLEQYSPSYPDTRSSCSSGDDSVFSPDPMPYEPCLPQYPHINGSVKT
Excerpt: as §1

MLK1 = target: T12, MLK1 (Homo sapiens, UniProt P80192)
T12 construct: purchased Luceome Biotechnologies (Tucson, Ariz.)
Excerpt: as §1

AMPK-α2 = target: T13, AMPK-α2 (Homo sapiens, UniProt P54646)
T13 construct: purchased Luceome Biotechnologies (Tucson, Ariz.)
T13 sequence (P54646 whole entry): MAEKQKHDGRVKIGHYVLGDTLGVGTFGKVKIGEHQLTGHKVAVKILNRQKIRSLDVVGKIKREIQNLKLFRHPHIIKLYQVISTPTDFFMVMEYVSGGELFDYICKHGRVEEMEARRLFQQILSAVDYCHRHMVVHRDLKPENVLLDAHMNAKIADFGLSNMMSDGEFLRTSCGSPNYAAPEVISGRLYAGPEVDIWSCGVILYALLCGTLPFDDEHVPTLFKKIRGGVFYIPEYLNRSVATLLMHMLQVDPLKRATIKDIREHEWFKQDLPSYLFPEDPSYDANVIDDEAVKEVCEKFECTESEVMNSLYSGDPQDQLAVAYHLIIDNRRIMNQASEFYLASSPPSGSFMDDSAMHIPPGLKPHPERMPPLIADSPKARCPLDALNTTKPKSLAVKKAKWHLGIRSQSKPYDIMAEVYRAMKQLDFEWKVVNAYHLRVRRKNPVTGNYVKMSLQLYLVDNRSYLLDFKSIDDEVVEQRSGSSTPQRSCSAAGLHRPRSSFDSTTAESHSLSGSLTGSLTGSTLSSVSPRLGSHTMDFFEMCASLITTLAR
Excerpt: as §1

RPS6KA5 = target: T14, RPS6KA5 (Homo sapiens, UniProt O75582)
T14 construct: purchased Luceome Biotechnologies (Tucson, Ariz.)
Excerpt: as §1

AURKB = target: T15, AURKB (Homo sapiens, UniProt Q96GD4)
T15 construct: purchased Luceome Biotechnologies (Tucson, Ariz.)
Excerpt: as §1

PAK1 = target: T16, PAK1 (Homo sapiens, UniProt Q13153)
T16 construct: purchased Luceome Biotechnologies (Tucson, Ariz.)
Excerpt: as §1

DDR2 = target: T17, DDR2 (Homo sapiens, UniProt Q16832)
T17 construct: purchased Luceome Biotechnologies (Tucson, Ariz.)
Excerpt: as §1

SRC = target: T18, SRC (Homo sapiens, UniProt P12931)
T18 construct: purchased Luceome Biotechnologies (Tucson, Ariz.)
T18 sequence (P12931 whole entry): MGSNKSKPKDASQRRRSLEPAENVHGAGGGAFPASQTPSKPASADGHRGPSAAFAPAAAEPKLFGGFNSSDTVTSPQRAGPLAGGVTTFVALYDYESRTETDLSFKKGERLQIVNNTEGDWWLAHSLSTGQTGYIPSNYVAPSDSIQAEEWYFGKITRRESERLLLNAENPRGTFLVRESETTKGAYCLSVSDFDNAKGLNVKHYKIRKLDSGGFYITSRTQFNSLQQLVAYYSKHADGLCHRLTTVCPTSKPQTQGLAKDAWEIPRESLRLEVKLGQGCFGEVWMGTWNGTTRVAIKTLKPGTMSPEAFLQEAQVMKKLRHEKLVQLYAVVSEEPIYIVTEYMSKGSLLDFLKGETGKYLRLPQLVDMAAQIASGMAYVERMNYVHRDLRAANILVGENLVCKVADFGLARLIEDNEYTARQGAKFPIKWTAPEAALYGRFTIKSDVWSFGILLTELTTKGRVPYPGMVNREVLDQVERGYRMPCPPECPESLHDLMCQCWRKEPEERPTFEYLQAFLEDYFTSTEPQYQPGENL
Excerpt: as §1

PKC-η = target: T19, PKC-η (Homo sapiens, UniProt P24723)
T19 construct: purchased Luceome Biotechnologies (Tucson, Ariz.)
Excerpt: as §1

CHEK1 = target: T20, CHEK1 (Homo sapiens, UniProt O14757)
T20 construct: purchased Luceome Biotechnologies (Tucson, Ariz.)
Excerpt: as §1

PKD2 = target: T21, PKD2 (Homo sapiens, UniProt Q9BZL6)
T21 construct: purchased Luceome Biotechnologies (Tucson, Ariz.)
Excerpt: as §1

PDK1 = target: T22, PDK1 (Homo sapiens, UniProt O15530)
T22 construct: purchased Luceome Biotechnologies (Tucson, Ariz.)
Excerpt: as §1

CAMK1D = target: T23, CAMK1D (Homo sapiens, UniProt Q8IU85)
T23 construct: purchased Luceome Biotechnologies (Tucson, Ariz.)
T23 sequence (Q8IU85 whole entry): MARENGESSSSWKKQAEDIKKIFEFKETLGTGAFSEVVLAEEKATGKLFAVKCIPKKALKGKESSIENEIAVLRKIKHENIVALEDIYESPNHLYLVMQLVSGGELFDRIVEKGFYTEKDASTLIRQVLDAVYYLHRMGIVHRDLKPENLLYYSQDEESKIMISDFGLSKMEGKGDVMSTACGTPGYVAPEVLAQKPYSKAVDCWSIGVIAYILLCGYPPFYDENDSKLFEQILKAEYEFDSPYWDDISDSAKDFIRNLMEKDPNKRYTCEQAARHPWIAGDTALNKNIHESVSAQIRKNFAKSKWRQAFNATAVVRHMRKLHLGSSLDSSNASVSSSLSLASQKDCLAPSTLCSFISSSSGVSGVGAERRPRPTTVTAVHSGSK
Excerpt: as §1

FLT1 = target: T24, FLT1 (Homo sapiens, UniProt P17948)
T24 construct: purchased Luceome Biotechnologies (Tucson, Ariz.)
Excerpt: as §1

AURKA = target: T25, AURKA (Homo sapiens, UniProt O14965)
T25 construct: purchased Luceome Biotechnologies (Tucson, Ariz.)
T25 sequence (O14965 whole entry): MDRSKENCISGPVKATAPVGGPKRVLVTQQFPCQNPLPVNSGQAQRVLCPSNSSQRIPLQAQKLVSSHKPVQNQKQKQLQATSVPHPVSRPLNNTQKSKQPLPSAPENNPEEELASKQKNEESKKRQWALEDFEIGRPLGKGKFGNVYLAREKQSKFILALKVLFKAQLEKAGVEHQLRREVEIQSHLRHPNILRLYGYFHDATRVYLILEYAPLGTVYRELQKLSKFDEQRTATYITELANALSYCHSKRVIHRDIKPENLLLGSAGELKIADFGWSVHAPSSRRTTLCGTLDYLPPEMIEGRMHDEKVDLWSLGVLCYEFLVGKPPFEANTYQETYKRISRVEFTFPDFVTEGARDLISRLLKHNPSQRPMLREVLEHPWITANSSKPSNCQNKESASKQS
Excerpt: as §1

AMPK-α1 = target: T26, AMPK-α1 (Homo sapiens, UniProt Q13131)
T26 construct: purchased Luceome Biotechnologies (Tucson, Ariz.)
Excerpt: as §1

SLK = target: T27, SLK (Homo sapiens, UniProt Q9H2G2)
T27 construct: purchased Luceome Biotechnologies (Tucson, Ariz.)
Excerpt: as §1

AKT2 = target: T28, AKT2 (Homo sapiens, UniProt P31751)
T28 construct: purchased Luceome Biotechnologies (Tucson, Ariz.)
Excerpt: as §1

SNF1LK2 = target: T29, SNF1LK2 (Homo sapiens, UniProt Q9H0K1)
T29 construct: purchased Luceome Biotechnologies (Tucson, Ariz.)
Excerpt: as §1

VEGFR2 = target: T30, VEGFR2 (Homo sapiens, UniProt P35968)
T30 construct: purchased Luceome Biotechnologies (Tucson, Ariz.)
Excerpt: as §1

RPS6KA4 = target: T31, RPS6KA4 (Homo sapiens, UniProt O75676)
T31 construct: purchased Luceome Biotechnologies (Tucson, Ariz.)
Excerpt: as §1

MST2 = target: T32, MST2 (Homo sapiens, UniProt Q13188)
T32 construct: purchased Luceome Biotechnologies (Tucson, Ariz.)
Excerpt: as §1

PIM1 = target: T33, PIM1 (Homo sapiens, UniProt P11309)
T33 construct: purchased Luceome Biotechnologies (Tucson, Ariz.)
Excerpt: as §1

CLK2 = target: T34, CLK2 (Homo sapiens, UniProt P49760)
T34 construct: purchased Luceome Biotechnologies (Tucson, Ariz.)
Excerpt: as §1

MET = target: T35, MET (Homo sapiens, UniProt P08581)
T35 construct: purchased Luceome Biotechnologies (Tucson, Ariz.)
Excerpt: as §1

MLK3 = target: T36, MLK3 (Homo sapiens, UniProt Q16584)
T36 construct: purchased Luceome Biotechnologies (Tucson, Ariz.)
Excerpt: as §1

CAMK2D = target: T37, CAMK2D (Homo sapiens, UniProt Q13557)
T37 construct: purchased Luceome Biotechnologies (Tucson, Ariz.)
Excerpt: as §1

PKC-δ = target: T38, PKC-δ (Homo sapiens, UniProt Q05655)
T38 construct: purchased Luceome Biotechnologies (Tucson, Ariz.)
Excerpt: as §1

PKC-ε = target: T39, PKC-ε (Homo sapiens, UniProt Q02156)
T39 construct: purchased Luceome Biotechnologies (Tucson, Ariz.)
T39 sequence (Q02156 whole entry): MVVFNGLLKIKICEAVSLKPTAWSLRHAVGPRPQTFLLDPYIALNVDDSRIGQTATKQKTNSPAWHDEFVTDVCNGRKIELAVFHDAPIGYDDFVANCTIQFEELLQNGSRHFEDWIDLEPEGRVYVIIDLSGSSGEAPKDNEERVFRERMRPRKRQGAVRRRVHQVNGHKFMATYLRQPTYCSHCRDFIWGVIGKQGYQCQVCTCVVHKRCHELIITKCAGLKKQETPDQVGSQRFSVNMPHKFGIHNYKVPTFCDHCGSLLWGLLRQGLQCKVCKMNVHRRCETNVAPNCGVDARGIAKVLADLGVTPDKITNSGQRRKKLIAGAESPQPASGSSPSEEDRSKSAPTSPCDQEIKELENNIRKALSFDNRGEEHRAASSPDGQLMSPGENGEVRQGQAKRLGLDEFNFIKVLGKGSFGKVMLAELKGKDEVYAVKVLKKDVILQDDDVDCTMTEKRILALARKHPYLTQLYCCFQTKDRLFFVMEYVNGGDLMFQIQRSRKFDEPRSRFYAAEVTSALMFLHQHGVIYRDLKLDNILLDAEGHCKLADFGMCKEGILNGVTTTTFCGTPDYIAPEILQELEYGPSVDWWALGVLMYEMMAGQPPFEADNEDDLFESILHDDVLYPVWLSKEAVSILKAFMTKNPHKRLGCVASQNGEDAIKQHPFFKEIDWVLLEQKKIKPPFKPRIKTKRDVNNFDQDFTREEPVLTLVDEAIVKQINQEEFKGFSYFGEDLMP
Excerpt: as §1

Row | SMILES | % Inhibition P38-γ (P38-γ) [%] | % Inhibition AKT3 (AKT3) [%] | % Inhibition CAMKD2B (CAMKD2B) [%] | % Inhibition SNARK (SNARK) [%] | % Inhibition AKT1 (AKT1) [%] | % Inhibition CAMKK2 (CAMKK2) [%] | % Inhibition BLK (BLK) [%] | % Inhibition YES1 (YES1) [%] | % Inhibition RPS6KA3 (RPS6KA3) [%] | % Inhibition PDGFRB (PDGFRB) [%] | % Inhibition FGFR2 (FGFR2) [%] | % Inhibition MLK1 (MLK1) [%] | % Inhibition AMPK-α2 (AMPK-α2) [%] | % Inhibition RPS6KA5 (RPS6KA5) [%] | % Inhibition AURKB (AURKB) [%] | % Inhibition PAK1 (PAK1) [%] | % Inhibition DDR2 (DDR2) [%] | % Inhibition SRC (SRC) [%] | % Inhibition PKC-η (PKC-η) [%] | % Inhibition CHEK1 (CHEK1) [%] | other results
1 | CC(C)(C)OC(=O)n1ccc2c[c]([Au-][P+](C3CCCCC3)(C3CCCCC3)C3CCCCC3)ccc21 [Compound 4, 5-{Tricyclohexylphosphine aurate(I)}-tert-butyl1H-indole-1-carboxylate] | 0 | 0 | 0 | 39.5 | 0 | 7.9 | 0 | 31.7 | 34.9 | 15.2 | 0 | 42.2 | 0 | 5.0 | 24.5 | 0 | 0 | 5.2 | 0 | 0 | % Inhibition PKD2 (PKD2): 3.8%; % Inhibition PDK1 (PDK1): 24.3%; % Inhibition CAMK1D (CAMK1D): 0%; % Inhibition FLT1 (FLT1): 9.4%; % Inhibition AURKA (AURKA): 41.7%; % Inhibition AMPK-α1 (AMPK-α1): 0%; % Inhibition SLK (SLK): 19.6%; % Inhibition AKT2 (AKT2): 33.6%; % Inhibition SNF1LK2 (SNF1LK2): 32.9%; % Inhibition VEGFR2 (VEGFR2): 5.8%; % Inhibition RPS6KA4 (RPS6KA4): 21.8%; % Inhibition MST2 (MST2): 0%; % Inhibition PIM1 (PIM1): 10.6%; % Inhibition CLK2 (CLK2): 0%; % Inhibition MET (MET): 23.3%; % Inhibition MLK3 (MLK3): 43%; % Inhibition CAMK2D (CAMK2D): 0%; % Inhibition PKC-δ (PKC-δ): 3.8%; % Inhibition PKC-ε (PKC-ε): 5.9%
2 | CC(C)(C)OC(=O)n1ccc2c[c]([Au-][P+](c3ccccc3)(c3ccccc3)c3ccccc3)ccc21 [Compound 3, 5-{Triphenylphosphine aurate(I)}-tert-butyl1H-indole-1-carboxylate] | 0 | 0 | 0 | 0 | 0 | 0 | 0 | 0 | 16.7 | 8.1 | 5.1 | 32.5 | 0 | 0 | 11.1 | 0 | 0 | 14.3 | 3.2 | 0 | % Inhibition PKD2 (PKD2): 0%; % Inhibition PDK1 (PDK1): 17.4%; % Inhibition CAMK1D (CAMK1D): 0%; % Inhibition FLT1 (FLT1): 18.9%; % Inhibition AURKA (AURKA): 26.7%; % Inhibition AMPK-α1 (AMPK-α1): 0%; % Inhibition SLK (SLK): 0%; % Inhibition AKT2 (AKT2): 25.8%; % Inhibition SNF1LK2 (SNF1LK2): 0%; % Inhibition VEGFR2 (VEGFR2): 0%; % Inhibition RPS6KA4 (RPS6KA4): 1.0%; % Inhibition MST2 (MST2): 0%; % Inhibition PIM1 (PIM1): 0%; % Inhibition CLK2 (CLK2): 0%; % Inhibition MET (MET): 15.1%; % Inhibition MLK3 (MLK3): 31.2%; % Inhibition CAMK2D (CAMK2D): 0%; % Inhibition PKC-δ (PKC-δ): 0%; % Inhibition PKC-ε (PKC-ε): 0%

— US9821173B2, “Anti-cancer agents and methods of use” (Case Western Reserve University, priority 2013, dated 2017)
